The source made the active and inactive calls. The rule behind the calls is not given here.
Assays:
[1] = Plasma clearance in Sprague-Dawley rat at 1 mg/kg, iv; type: ADME, organism-based; set-up: dose 1 mg/kg, route intravenous
[2] = Oral bioavailability in Sprague-Dawley rat at 4 mg/kg; type: ADME, organism-based; conditions: in vivo
Rattus norvegicus = assay: Dose normalized AUC in Sprague-Dawley rat at 4 mg/kg, po; type: ADME, organism-based; set-up: dose 4 mg/kg, route oral; conditions: in vivo
[3] = target: T1, Bombesin receptor subtype-3 (Mus musculus) (UniProt O54798); assay: Agonist activity at mouse BRS3 expressed in HEK293 cells expressing aequorin measured for 30 secs by bioluminescence assay relative to [125I]-[D-Tyr6,beta-Ala11,Phe13,Nle14]-Bombesin(6-14); type: functional, cell-based
T1 sequence (whole entry): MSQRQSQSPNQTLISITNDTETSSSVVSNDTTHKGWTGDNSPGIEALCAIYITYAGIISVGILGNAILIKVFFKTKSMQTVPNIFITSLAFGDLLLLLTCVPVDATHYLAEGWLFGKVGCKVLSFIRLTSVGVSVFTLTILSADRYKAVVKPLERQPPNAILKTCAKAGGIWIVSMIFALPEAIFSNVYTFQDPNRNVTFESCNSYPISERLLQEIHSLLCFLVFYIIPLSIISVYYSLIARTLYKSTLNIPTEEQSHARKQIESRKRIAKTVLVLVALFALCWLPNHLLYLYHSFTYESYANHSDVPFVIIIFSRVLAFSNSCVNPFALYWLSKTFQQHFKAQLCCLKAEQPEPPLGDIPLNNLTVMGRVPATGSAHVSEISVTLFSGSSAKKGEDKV

[4] = target: T2, Bombesin receptor subtype-3 (Homo sapiens, UniProt P32247); assay: Displacement of [125I]-[D-Tyr6,beta-Ala11,Phe13,Nle14]-Bombesin(6-14) from human BRS3 expressed in CHO cells expressing NFAT after 2 hrs by liquid scintillation counting; type: cell-based
T2 sequence (P32247 whole entry): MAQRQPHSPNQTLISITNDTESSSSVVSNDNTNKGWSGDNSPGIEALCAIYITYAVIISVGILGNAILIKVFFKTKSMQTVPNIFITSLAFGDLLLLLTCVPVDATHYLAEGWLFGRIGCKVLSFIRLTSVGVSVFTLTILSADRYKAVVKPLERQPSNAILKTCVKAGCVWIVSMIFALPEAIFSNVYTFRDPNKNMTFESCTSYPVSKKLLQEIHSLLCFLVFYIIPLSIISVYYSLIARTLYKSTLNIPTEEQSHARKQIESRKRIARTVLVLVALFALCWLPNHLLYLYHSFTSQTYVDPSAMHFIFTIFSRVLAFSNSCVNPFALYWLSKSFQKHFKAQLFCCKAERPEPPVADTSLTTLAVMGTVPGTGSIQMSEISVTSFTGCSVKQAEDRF

[5] = target: T2, Bombesin receptor subtype-3; assay: Agonist activity at human BRS3 expressed in HEK293 cells expressing aequorin measured for 30 secs by bioluminescence assay; type: functional, cell-based
[6] = target: T3, Bombesin receptor subtype-3 (Mus musculus, UniProt O54798); assay: Agonist activity at mouse BRS3 expressed in HEK293 cells expressing aequorin measured for 30 secs by bioluminescence assay; type: functional, cell-based
T3 sequence (O54798 whole entry): T1 sequence (whole entry)

[7] = Half life in Sprague-Dawley rat at 1 mg/kg, iv; type: ADME, organism-based; set-up: dose 1 mg/kg, route intravenous; conditions: in vivo
Mus musculus [8] = assay: Antiobesity activity in diet-induced obese wild type C57 mouse assessed as weight loss at 3 mg/kg, po administered QD 60 mins prior to dark cycle onset relative to control; type: functional
Mus musculus [9] = assay: Antiobesity activity in po dosed diet-induced obese wild type C57 mouse assessed as reduction in food intake administered 60 mins prior to dark cycle onset measured after 18 hrs; type: functional, organism-based
[10] = Displacement of [125I]-[D-Tyr6,beta-Ala11,Phe13,Nle14]-Bombesin(6-14) from dog BRS3; set-up: species or system Canis lupus familiaris
[11] = Agonist activity at dog BRS3; type: functional, Canis lupus familiaris
[12] = target: T4, Nuclear receptor subfamily 1 group I member 2 (Homo sapiens, UniProt O75469); assay: Activation of human PXR
T4 sequence (O75469 whole entry): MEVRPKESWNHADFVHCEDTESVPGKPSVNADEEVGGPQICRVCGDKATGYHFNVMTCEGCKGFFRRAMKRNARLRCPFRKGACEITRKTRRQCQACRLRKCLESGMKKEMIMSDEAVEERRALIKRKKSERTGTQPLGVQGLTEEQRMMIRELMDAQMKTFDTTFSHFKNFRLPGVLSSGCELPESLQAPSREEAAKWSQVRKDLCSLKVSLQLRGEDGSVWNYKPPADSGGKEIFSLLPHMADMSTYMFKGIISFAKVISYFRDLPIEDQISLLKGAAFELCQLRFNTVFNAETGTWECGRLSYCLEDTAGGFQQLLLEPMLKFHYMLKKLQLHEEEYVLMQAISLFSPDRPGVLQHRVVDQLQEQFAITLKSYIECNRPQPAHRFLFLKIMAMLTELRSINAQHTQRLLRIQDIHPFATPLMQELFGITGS

[13] = Inhibition of calcium channel Diltiazem hydrochloride binding site
[14] = Half life in rhesus monkey; type: ADME, organism-based, Macaca mulatta; conditions: in vivo
Macaca mulatta = organism: Macaca mulatta; assay: Agonist activity at rhesus monkey BRS3 relative to [125I]-[D-Tyr6,beta-Ala11,Phe13,Nle14]-Bombesin(6-14); type: functional
[15] = target: T2, Bombesin receptor subtype-3; assay: Agonist activity at human BRS3 expressed in HEK293 cells expressing aequorin measured for 10 mins by bioluminescence assay
Mus musculus [16] = assay: Antiobesity activity in diet-induced obese […] knock-out C57 mouse assessed as reduction in food intake at 3 and 30 mg/kg, po administered 60 mins prior to dark cycle onset measured after 18 hrs; type: functional, organism-based; set-up: dose 30 mg/kg
[17] = Displacement of [125I]-[D-Tyr6,beta-Ala11,Phe13,Nle14]-Bombesin(6-14) from rhesus monkey BRS3; set-up: species or system Macaca mulatta
[18] = Agonist activity at rhesus monkey BRS3; type: functional, Macaca mulatta
Canis lupus familiaris = organism: Canis lupus familiaris; assay: Agonist activity at dog BRS3 relative to [125I]-[D-Tyr6,beta-Ala11,Phe13,Nle14]-Bombesin(6-14); type: functional
Mus musculus [19] = assay: Antiobesity activity in po dosed diet-induced obese wild type C57 mouse assessed as body weight loss administered 60 mins prior to dark cycle onset measured after 18 hrs; type: functional, organism-based
PXR = target: T5, PXR (Homo sapiens, UniProt O75469); assay: Activation of human PXR at 10 uM relative to control; conditions: read-out: Activity
T5 sequence (O75469 whole entry): T4 sequence (O75469 whole entry)

[20] = target: Voltage-gated inwardly rectifying potassium channel KCNH2 (Homo sapiens, UniProt Q12809); assay: Inhibition of human ERG
Sequence of Voltage-gated inwardly rectifying potassium channel KCNH2 (Q12809 whole entry): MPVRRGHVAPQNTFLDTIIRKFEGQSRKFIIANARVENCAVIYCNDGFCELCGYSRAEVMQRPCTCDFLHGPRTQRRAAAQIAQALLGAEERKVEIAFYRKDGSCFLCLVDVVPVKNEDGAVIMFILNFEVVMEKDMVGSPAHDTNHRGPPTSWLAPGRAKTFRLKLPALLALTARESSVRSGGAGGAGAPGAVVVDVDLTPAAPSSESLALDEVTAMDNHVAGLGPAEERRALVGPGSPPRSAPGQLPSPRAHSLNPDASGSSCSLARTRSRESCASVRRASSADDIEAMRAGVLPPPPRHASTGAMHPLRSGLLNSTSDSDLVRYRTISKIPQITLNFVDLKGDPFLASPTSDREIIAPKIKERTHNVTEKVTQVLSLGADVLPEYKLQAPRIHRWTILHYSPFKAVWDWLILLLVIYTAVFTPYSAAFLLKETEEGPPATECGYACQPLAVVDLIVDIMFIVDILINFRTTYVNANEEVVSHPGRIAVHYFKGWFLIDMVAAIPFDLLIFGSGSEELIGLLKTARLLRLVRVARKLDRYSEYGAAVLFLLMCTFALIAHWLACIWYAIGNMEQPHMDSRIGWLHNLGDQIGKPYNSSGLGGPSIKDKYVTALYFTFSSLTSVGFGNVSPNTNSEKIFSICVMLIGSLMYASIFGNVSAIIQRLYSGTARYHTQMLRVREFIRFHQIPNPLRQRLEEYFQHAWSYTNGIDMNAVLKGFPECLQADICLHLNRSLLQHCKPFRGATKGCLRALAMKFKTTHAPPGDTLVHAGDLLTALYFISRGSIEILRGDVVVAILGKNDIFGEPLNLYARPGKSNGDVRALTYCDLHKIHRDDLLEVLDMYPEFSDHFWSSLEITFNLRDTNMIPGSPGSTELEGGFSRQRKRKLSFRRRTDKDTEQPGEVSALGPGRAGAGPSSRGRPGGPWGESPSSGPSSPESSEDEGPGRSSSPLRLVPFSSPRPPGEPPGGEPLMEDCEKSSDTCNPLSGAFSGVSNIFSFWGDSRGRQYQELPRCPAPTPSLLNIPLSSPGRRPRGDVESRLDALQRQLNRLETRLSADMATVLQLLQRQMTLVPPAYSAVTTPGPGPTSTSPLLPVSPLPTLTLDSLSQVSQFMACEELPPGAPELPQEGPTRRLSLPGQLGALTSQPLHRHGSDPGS

[21] = Oral bioavailability in rhesus monkey; type: ADME, organism-based, Macaca mulatta; conditions: in vivo

SMILES	max activation [3] [%]	IC50 [4] [nM]	EC50 [5] [nM]	EC50 [6] [nM]	further results
CC(C)(C)c1ccc(S(=O)(=O)N2Cc3ccc(C(F)(F)F)nc3Nc3ccc(C(C)(C)O)c(F)c32)cc1	97	5	77	134	clearance [1]: 24 mL/min/kg; bioavailability [2]: 13%; AUC/dose (Rattus norvegicus): 0.19 µM·kg·h/mg; half-life [7]: 3 h
Cc1ccc2c(n1)N(S(=O)(=O)c1ccc(C(C)(C)C)cc1)Cc1ccc(C(F)(F)F)nc1N2	112		110	171	
CC(C)(C)c1ccc(S(=O)(=O)N2Cc3ccc(C(F)(F)F)nc3Nc3ccccc32)cc1	98	5.5	110	161	
Cc1ccc2c(c1C)N(S(=O)(=O)c1csc(C(F)(F)F)c1)Cc1ccc(C(F)(F)F)nc1N2	103	14	123	96	
Cc1c(C(=O)NN2CCCCC2)nn(-c2ccc(Cl)cc2Cl)c1-c1ccc(I)cc1					Activity (Mus musculus [8]): 6.2%
Cc1ccc2c(c1C)N(S(=O)(=O)c1ccc(C(C)(C)C)cc1)Cc1ccc(C#N)nc1N2	103	4.4	50	50	
Cc1ccc2c(c1C)N(S(=O)(=O)c1ccc(C(C)(C)C#N)cc1)Cc1ccc(C(F)(F)F)nc1N2	83	5.7	60	79	
Cc1ccc2c(c1C)N(S(=O)(=O)c1ccc(C(C)C)cc1)Cc1ccc(C(F)(F)F)nc1N2	110	1.6	49	84	clearance [1]: 16 mL/min/kg; bioavailability [2]: 10%; AUC/dose (Rattus norvegicus): 0.24 µM·kg·h/mg; half-life [7]: 3.5 h
Cc1ccc2c(c1C)N(S(=O)(=O)c1ccc(C(C)(C)C)cc1)Cc1cccnc1N2	101	40	325	248	clearance [1]: 164 mL/min/kg; bioavailability [2]: 1%; AUC/dose (Rattus norvegicus): 0.007 µM·kg·h/mg; half-life [7]: 1.6 h
Cc1ccc2c(c1C)N(S(=O)(=O)c1ccc(C(C)(C)C)cc1)Cc1cc(F)c(Cl)nc1N2	82	8.9	277	371	
Cc1ccc2c(c1C)N(S(=O)(=O)c1ccc(S(C)(=O)=O)cc1)Cc1ccc(C(F)(F)F)nc1N2	46	73	543	561	
CC(C)(C)c1ccc(S(=O)(=O)N2Cc3ccc(C(F)(F)F)nc3Nc3cccc(Cl)c32)cc1	100	3.2	63	155	clearance [1]: 46 mL/min/kg; bioavailability [2]: 34%; AUC/dose (Rattus norvegicus): 0.26 µM·kg·h/mg; half-life [7]: 1.4 h
CC(C)(C)c1ccc(S(=O)(=O)N2Cc3ccc(C(F)(F)F)nc3Nc3cccc(O)c32)cc1	115	2.2	88	209	
Cc1ccc2c(c1C)N(S(=O)(=O)c1ccc(C(F)(F)F)s1)Cc1ccc(C(F)(F)F)nc1N2	90	10	158	154	
Cc1ccc2c(c1C)N(S(=O)(=O)c1ccc(C(C)(C)C)cc1)Cc1cc(Cl)cnc1N2		430	> 10000	> 10000	
CC(C)(C)c1ccc(S(=O)(=O)N2Cc3ccc(C(F)(F)F)nc3Nc3ccc4ncccc4c32)cc1	107	0.7	108	129	
Cc1ccc2c(c1C)N(S(=O)(=O)c1ccc(C(C)(C)C)cc1)Cc1ccc(Cl)nc1N2	105	1.2	38	98	
Cc1ccc2c(c1C)N(S(=O)(=O)c1ccc(OC(F)(F)F)cc1)Cc1ccc(C(F)(F)F)nc1N2	103	3.3	43	80	
Cc1ccc2c(c1C)N(S(=O)(=O)c1ccc(C(C)(C)F)cc1)Cc1ccc(C(F)(F)F)nc1N2	108	5.7	69	200	
Cc1ccc2c(c1C)Nc1nc(C(F)(F)F)ccc1CN2S(=O)(=O)c1ccc(C(C)(C)C)cc1			> 10000	> 10000	
Cc1ccc2c(c1C)N(S(=O)(=O)c1ccc(C(C)(C)C)cc1)Cc1ccc(C(F)(F)F)nc1N2	98				Activity (Mus musculus [9]): Dose-dependent effect; IC50 [10]: 1.6 nM; EC50 [11]: 36 nM; EC50 [12]: 678 nM; clearance [1]: 29 mL/min/kg; IC50 [13]: > 10000 nM; half-life [14]: 1.8 h; bioavailability [2]: 15%; max activation (Macaca mulatta): 97%; EC50 [15]: 15 nM; Activity (Mus musculus [16]): inactive; IC50 [17]: 3 nM; EC50 [18]: 70 nM; AUC/dose (Rattus norvegicus): 0.2 µM·kg·h/mg; max activation (Canis lupus familiaris): 97%; Activity (Mus musculus [19]): Dose-dependent effect; activity at 10 µM (PXR): 42%; IC50 [20]: > 10000 nM; bioavailability [21]: 17%; half-life [7]: 1.6 h
Cc1ccc2c(c1)N(S(=O)(=O)c1ccc(C(C)(C)C)cc1)Cc1ccc(C(F)(F)F)nc1N2	82	5.8	199	377	clearance [1]: 24 mL/min/kg; bioavailability [2]: 22%; AUC/dose (Rattus norvegicus): 0.31 µM·kg·h/mg; half-life [7]: 2.2 h
Cc1cccc2c1N(S(=O)(=O)c1ccc(C(C)(C)C)cc1)Cc1ccc(C(F)(F)F)nc1N2	106	0.9	50	120	clearance [1]: 38 mL/min/kg; bioavailability [2]: 14%; AUC/dose (Rattus norvegicus): 0.13 µM·kg·h/mg; half-life [7]: 1.6 h
Cc1ccc2c(c1C)N(S(=O)(=O)c1ccc(C(F)(F)F)cc1)Cc1ccc(C(F)(F)F)nc1N2	100	6.8	154	79	
Cc1ccc2c(n1)Nc1ccc(C)c(C)c1N(S(=O)(=O)c1ccc(C(C)(C)C)cc1)C2	107	10	131	232	

Reference: ChEMBL document CHEMBL2177008, “Discovery of benzodiazepine sulfonamide-based bombesin receptor subtype 3 agonists and their unusual chirality” (ACS Med Chem Lett, 2011)
